Assay [1] is described as follows: Inhibition of IL-17A production in PMA/ionomycin-stimulated mouse EL4 cells at 20 uM measured by ELISA relative to control. The format is functional. Background: ELISA stands for enzyme-linked immunosorbent assay.
A short description of assay [2]: Inhibition of IL-17A production in PMA/ionomycin-stimulated mouse EL4 cells at 10 uM measured by ELISA relative to control. The format is functional.
Assay [3] can be described thus: Inhibition of IL-17A production in PMA/ionomycin-stimulated mouse EL4 cells measured by ELISA. The class given is functional, cell-based.
Assay [4] relates to EL4. Description: Inhibition of IL-17A production in PMA/ionomycin-stimulated mouse EL4 cells at 2 to 10 uM measured […]. The class given is functional, cell-based. Particulars: dose 2-10 µM, DDE = dose-dependent effect.
Assay [5] concerns EL4. The assay is described as follows: Inhibition of IL-17A production in PMA/ionomycin-stimulated mouse EL4 cells at 2 to 10 uM measured by ELISA. The class given is functional, cell-based. Particulars: dose 2-10 µM, DDE = dose-dependent effect.
The subject of assay [6] is EL4. Description: Inhibition of IL-17A mRNA expression in PMA/ionomycin-stimulated mouse EL4 cells at 10 uM measured by qRT-PCR method. The format is functional, cell-based. On the technique in general: In qPCR the cycle at which signal appears reflects the starting amount.
The subject of assay [7] is EL4. The assay is described as follows: Inhibition of IL-17F mRNA expression in PMA/ionomycin-stimulated mouse EL4 cells at 10 uM measured by qRT-PCR method. The format is functional, cell-based.
The test system of assay [8] is Th17. The assay is described as follows: Inhibition of human Th17 cells differentiation in CD4+ve T cells assessed as decrease in IL-17A production at 2 uM measured by ELISA. The class given is functional, cell-based.
Assay [9] relates to Th17. Description: Inhibition of human Th17 cells differentiation in CD4+ve T cells assessed as decrease in IL-17A mRNA expression at 2 uM measured by qRT-PCR method. The format is functional, cell-based.
For assay [10], the system named is EL4. The assay is described as follows: Downregulation ofp-STAT3 (Y705) expression in PMA/ionomycin-stimulated mouse EL4 cells measured by western blot analysis. The format is functional, cell-based.

Activity calls are given as the source filed them. The calls are words filed in the database; no cut-off is given here.

As a reminder, the inhibition is how much of the control response was suppressed. For `CN(C)CCNc1ccc(-c2noc(-c3ccccc3)n2)cc1`, in assay [1], at 20 µM the inhibition was 22.9%.
As to `CN(C)CCNc1ccc(-c2noc(C34CC5CC(CC(C5)C3)C4)n2)cc1`, testing at 10 µM in assay [2] gave an inhibition of 39.6%.
`CN(C)CCNCc1nc(Cc2c[nH]c3ccccc23)no1` gave an inhibition at 10 µM in [2] of 6.1%.
Turning to `O=S(=O)(c1ccccc1)N(CC(F)(F)F)c1ccc(C(O)(C(F)(F)F)C(F)(F)F)cc1` [T091317], 20 µM produced 52.7% inhibition in assay [1].
Molecule `Nc1ccc(-c2noc(Cc3c[nH]c4ccccc34)n2)cc1` showed an inhibition at 10 µM in [2] of 6.4%.
Take `N=C(N)NCCNc1ccc(-c2noc(Cc3c[nH]c4ccccc34)n2)cc1`: at 10 µM the inhibition in [2] was 15.2%.
What is called IC50 is the midpoint of a concentration-inhibition curve. `COc1cc(-c2nc(-c3ccc(NCCN(C)C)cc3)no2)cc(OC)c1OC` had an inhibition at 10 µM in [2] of 83.5%. The molecule further gave an IC50 in [3] of 5.29 µM. Besides, the inhibition entry in the assay on EL4 [4] and in the assay with EL4 [5] was “Dde” throughout. Also, the inhibition result with EL4 [6] and in the assay on EL4 [7] was “Active” in each case.
The molecule `c1ccc2c(Cc3noc(CNC4CCC4)n3)c[nH]c2c1` had an inhibition at 10 µM in assay [2] of 5.8%.
Same read-out and setting: to `CS(=O)(=O)c1ccc(CNc2ccc(-c3noc(Cc4c[nH]c5ccccc45)n3)cc2)cc1` belongs 10.3%; to `CS(=O)(=O)c1ccc(CNC23CCC(c4nc(Cc5c[nH]c6ccccc56)no4)(CC2)C3)cc1`, 8.1%.
Molecule `CC(=O)NCCNc1ccc(-c2noc(Cc3c[nH]c4ccccc34)n2)cc1` displayed an inhibition at 10 µM in assay [2] of 31%.
The molecule `NCCNc1ccc(-c2noc(Cc3c[nH]c4ccccc34)n2)cc1` yielded an inhibition at 10 µM in assay [2] of 21.5%.
Take `CN(C)CCNc1ccc(-c2noc(Cc3c[nH]c4ccccc34)n2)cc1`: 10 µM produced 78.7% inhibition in assay [2]. In addition, half-maximal inhibition in assay [3] (IC50) required 7.73 µM. The inhibition result with EL4 [4] and in the assay with EL4 [5] was “Dde” in each case. The inhibition result with EL4 [6], in the assay on EL4 [7], in the assay with Th17 [8] and with Th17 [9] was “Active” throughout. For the same molecule, the result in the assay on EL4 [10] was Active.
In assay [2], `NC12CCC(c3nc(Cc4c[nH]c5ccccc45)no3)(CC1)C2` returned an inhibition at 10 µM of 3%.

The values above are taken from ChEMBL document CHEMBL5107993, “Design, synthesis and in vitro biological evaluation of marine phidianidine derivatives as potential anti-inflammatory agents” (Bioorg Med Chem, 2022).
